Ten compounds from ChEMBL document CHEMBL1126682, “Quinolone antimicrobial agents substituted with morpholines at the 7-position. Syntheses and structure-activity relationships” (J Med Chem, 1993) can be followed below.

In general, MIC refers to the least concentration at which growth counts as inhibited. A lower MIC goes with greater potency. Broadly, the IC50 is the midpoint of a concentration-inhibition curve. Broadly, the solubility is the concentration that dissolves in the medium under given conditions. Higher therefore signals a readily soluble substance.

The test system of one series is Enterococcus faecalis. The experiment in a line: Minimum inhibition concentration against Enterococcus faecalis LS-101 strain. The class given is functional.
The test system of another series is Streptococcus pneumoniae. The series is described as follows: Minimum inhibition concentration against Streptococcus pneumoniae Type I strain. It is filed as functional.
Another series relates to Pseudomonas aeruginosa. The experiment in a line: Minimum inhibition concentration against Pseudomonas aeruginosa U-31 strain. The class given is functional.
Series [1] concerns Staphylococcus aureus. The experiment in a line: Minimum inhibition concentration against Staphylococcus aureus FDA209P strain. The class given is functional.
Series [2] deals with Escherichia coli. The series is described as follows: Minimum inhibition concentration against Escherichia coli NIHJ JC-2 strain. The class given is functional.
In series [3] the test system is Escherichia coli. The experiment in a line: Effective dose against Escherichia coli KC14 strain in mouse. The class given is functional.
In series [4] the test system is Escherichia coli. The series is described as follows: Minimum inhibitory concentration against Escherichia coli KC14 strain. It is filed as functional.
The target in series [5] is T1, GABA-A receptor; anion channel (Homo sapiens) (UniProt P14867+P47870+P18507+P28472+P48169+Q99928+Q9UN88+P34903+O00591+O14764+Q8N1C3+P18505+P78334+P47869+P31644+Q16445). The experiment in a line: Percentage of GABA-induced chloride currents with 10 e-5 M 4-biphenylacetic acid. The class given is functional. Conditions: Bull Frog.
The target of series [6] is T1, GABA-A receptor; anion channel (Homo sapiens). The series is described as follows: Percentage of GABA-induced chloride currents with 10e-4 M 4-biphenylacetic acid. The class given is functional. Particulars: Bull Frog.
Series [7] has the same target. The experiment in a line: Percentage of GABA-induced chloride currents with compound alone at 10 e-4 M. Particulars: Bull Frog. The class given is functional.
The test system of series [8] is Mus musculus. The series is described as follows: Percentage of mice with convulsion (400 mg/kg fenbufen). It is filed as functional.
The subject of series [9] is Staphylococcus aureus. The experiment in a line: Minimum inhibitory concentration against Staphylococcus aureus Smith. It is filed as functional.
Series [10] relates to Staphylococcus aureus. The series is described as follows: Effective dose against Staphylococcus aureus smith strain in mouse. The class given is functional.
In series [11] the target is GABA-A receptor; anion channel. The series is described as follows: Inhibition of [3H]muscimol binding to GABA A receptor 4-biphenylacetic acid at 10 e-4 M. The class given is protein-complex assay.
The target in series [12] is GABA-A receptor; anion channel. The experiment in a line: Inhibition of [3H]muscimol binding to GABA A receptor with compound alone at 10 e-4 M. The class given is protein-complex assay.
Series [13] is described as follows: The compound was evaluated for the solubility in water at 25 degrees Centigrade. It is filed as ADME.
Series [14] deals with Mus musculus. The experiment in a line: Percentage of mice with convulsion with compound alone at 400 mg/kg. It is filed as functional.
Series [15] relates to Staphylococcus aureus. The series is described as follows: Minimum inhibition concentration against Staphylococcus aureus MRSA strain. It is filed as functional.

Values after ≈ are worked out from the molar mass of the structure shown.

In the case of `NCC1CN(c2c(F)cc3c(=O)c(C(=O)O)cn(C4CC4)c3c2Cl)CCO1` (configuration not stated), the MIC in the series with Enterococcus faecalis came out at 0.05 µg/mL (≈ 0.126 µM); with Streptococcus pneumoniae, 0.05 µg/mL (≈ 0.126 µM); in the series with Pseudomonas aeruginosa, 1.56 µg/mL (≈ 3.94 µM); in the series on Staphylococcus aureus [1] it was 0.012 µg/mL (≈ 0.0303 µM); with Escherichia coli [2], 0.1 µg/mL (≈ 0.253 µM).

Turning to `CN(C)CC1CN(c2c(F)cc3c(=O)c(C(=O)O)cn(C4CC4)c3c2F)CCO1` (configuration not stated), the ED50 came to 0.009 mg mouse-1 in the series with Escherichia coli [3] and 0.035 mg mouse-1 with Staphylococcus aureus [10]. Moreover, the MIC in the series on Escherichia coli [4] amounted to 0.05 µg/mL (≈ 0.123 µM); against Enterococcus faecalis, 0.39 µg/mL (≈ 0.957 µM); with Streptococcus pneumoniae it was 0.05 µg/mL (≈ 0.123 µM); in the series with Pseudomonas aeruginosa it was 3.13 µg/mL (≈ 7.68 µM); in the series on Staphylococcus aureus [9], 0.012 µg/mL (≈ 0.0295 µM); against Staphylococcus aureus [1], 0.025 µg/mL (≈ 0.0614 µM). The compound further registered an MIC against Escherichia coli [2] of 0.2 µg/mL (≈ 0.491 µM). Besides, the results for the Currents in series [5], in series [6] and in [7] were 89%, 83% and 91%, respectively. For the same compound, the Convulsion with Mus musculus [8] and in the series on Mus musculus [14] was 0% each time. Also, the IC50 in [11] (read-out: IC50) was > 100000 nM; in series [12], > 100 µM. In [13], the solubility was > 1000 µg/mL.

On to `NCC1CN(c2c(F)cc3c(=O)c(C(=O)O)cn(C4CC4)c3c2F)CCCO1` (configuration not stated), for which the minimal inhibitory concentration (MIC) stood at 1.56 µg/mL (≈ 3.97 µM) in the series on Enterococcus faecalis; 1.56 µg/mL (≈ 3.97 µM) with Streptococcus pneumoniae; 6.25 µg/mL (≈ 15.9 µM) against Pseudomonas aeruginosa; 0.78 µg/mL (≈ 1.98 µM) in the series on Staphylococcus aureus [1]; 0.39 µg/mL (≈ 0.991 µM) against Escherichia coli [2].

As to `CCN(CC)CC1CN(c2c(F)cc3c(=O)c(C(=O)O)cn(C4CC4)c3c2F)CCO1` (configuration not stated), the MIC was determined as 0.39 µg/mL (≈ 0.896 µM) against Enterococcus faecalis; 0.1 µg/mL (≈ 0.23 µM) in the series with Streptococcus pneumoniae; 6.25 µg/mL (≈ 14.4 µM) in the series on Pseudomonas aeruginosa; 0.1 µg/mL (≈ 0.23 µM) with Staphylococcus aureus [1]; 0.39 µg/mL (≈ 0.896 µM) in the series with Escherichia coli [2].

Consider `O=C(O)c1cn(C2CC2)c2cc(N3CCNCC3)c(F)cc2c1=O` [CIPROFLOXACIN], for which the ED50 in the series on Escherichia coli [3] stood at 0.007 mg mouse-1; in the series with Staphylococcus aureus [10], 0.354 mg mouse-1. Further, the MIC was < 0.006 µg/mL in the series with Escherichia coli [4]; 0.39 µg/mL (≈ 1.18 µM) against Enterococcus faecalis; 1.56 µg/mL (≈ 4.71 µM) in the series with Staphylococcus aureus [15]; 0.39 µg/mL (≈ 1.18 µM) against Streptococcus pneumoniae; 0.1 µg/mL (≈ 0.302 µM) in the series with Pseudomonas aeruginosa; 0.1 µg/mL (≈ 0.302 µM) in the series on Staphylococcus aureus [9]. The compound also gave an MIC against Staphylococcus aureus [1] of 0.1 µg/mL (≈ 0.302 µM). Besides, the Currents was 0% in [5] and 64% in series [7]. The figures for the Convulsion in the series with Mus musculus [8] and in the series with Mus musculus [14] were 63% and 0%, respectively. The IC50 in series [11] worked out at 410 nM; in series [12] it was 100 µM.

Regarding `NCC1CN(c2cc3c(cc2F)c(=O)c(C(=O)O)cn3C2CC2)CCO1` (configuration not stated), the figures for the ED50 with Escherichia coli [3] and in the series on Staphylococcus aureus [10] were 0.139 mg mouse-1 and 0.835 mg mouse-1, respectively. Besides, the MIC in the series with Escherichia coli [4] is 0.1 µg/mL (≈ 0.277 µM); in the series with Enterococcus faecalis, 0.2 µg/mL (≈ 0.553 µM); in the series with Streptococcus pneumoniae it was 0.39 µg/mL (≈ 1.08 µM); with Pseudomonas aeruginosa it was 1.56 µg/mL (≈ 4.32 µM); against Staphylococcus aureus [9], 0.05 µg/mL (≈ 0.138 µM); against Staphylococcus aureus [1] it was 0.2 µg/mL (≈ 0.553 µM). Also, the minimal inhibitory concentration (MIC) with Escherichia coli [2] amounted to 0.2 µg/mL (≈ 0.553 µM). Moreover, the Currents in series [5] turned out to be 90%; in [6], 81%; in [7], 93%. For the same compound, the Convulsion in the series with Mus musculus [8] and in the series on Mus musculus [14] was 0% in each case. Further, the IC50 was > 100000 nM in [11] (read-out: IC50) and > 100 µM in [12]. Further, the concentration in solution in series [13] (solubility) came to 390 µg/mL (≈ 1080 µM).

Take `CC(=O)NCC1CN(c2c(F)cc3c(=O)c(C(=O)O)cn(C4CC4)c3c2F)CCO1` (configuration not stated): the MIC in the series on Enterococcus faecalis is 0.78 µg/mL (≈ 1.85 µM); against Streptococcus pneumoniae, 0.78 µg/mL (≈ 1.85 µM); with Pseudomonas aeruginosa it was 12.5 µg/mL (≈ 29.7 µM); in the series on Staphylococcus aureus [1] it was 0.2 µg/mL (≈ 0.475 µM); in the series on Escherichia coli [2] it was 1.56 µg/mL (≈ 3.7 µM).

As to `CC1COc2c(N3CCOC(CN)C3)c(F)cc3c(=O)c(C(=O)O)cn1c23` (configuration not stated), the MIC against Enterococcus faecalis is 3.13 µg/mL (≈ 8.29 µM); against Streptococcus pneumoniae, 12.5 µg/mL (≈ 33.1 µM); against Pseudomonas aeruginosa, 25 µg/mL (≈ 66.2 µM); against Staphylococcus aureus [1] it was 0.78 µg/mL (≈ 2.07 µM); in the series on Escherichia coli [2], 3.13 µg/mL (≈ 8.29 µM).

Take `O=C(O)c1cn(C2CC2)c2c(F)c(N3CCNCC3)c(F)cc2c1=O`: the Currents in series [5] worked out at 11%; in [6] it was 0%; in [7], 81%. For the same compound, the MIC in the series on Enterococcus faecalis came to 0.2 µg/mL (≈ 0.573 µM); in the series with Staphylococcus aureus [15], 0.78 µg/mL (≈ 2.23 µM); in the series with Streptococcus pneumoniae, 0.39 µg/mL (≈ 1.12 µM); against Pseudomonas aeruginosa, 0.1 µg/mL (≈ 0.286 µM); in the series on Staphylococcus aureus [1], 0.1 µg/mL (≈ 0.286 µM); in the series with Escherichia coli [2], 0.006 µg/mL (≈ 0.0172 µM). For the same compound, the Convulsion in the series on Mus musculus [8] is 88%; with Mus musculus [14], 0%. The IC50 in [11] (read-out: IC50) turned out to be 120 nM; in series [12], 64 µM.

As to `NCCC1CN(c2c(F)cc3c(=O)c(C(=O)O)cn(C4CC4)c3c2F)CCO1` (configuration not stated), the MIC in the series with Enterococcus faecalis turned out to be 0.39 µg/mL (≈ 0.991 µM); against Streptococcus pneumoniae, 0.39 µg/mL (≈ 0.991 µM); against Pseudomonas aeruginosa, 12.5 µg/mL (≈ 31.8 µM); against Staphylococcus aureus [1], 0.2 µg/mL (≈ 0.508 µM); against Escherichia coli [2], 1.56 µg/mL (≈ 3.97 µM).
